How the values were obtained:
Format in all cases: cell-based
Conditions in all cases: Homo sapiens, compound 5 hours at 37° C., 1% DMSO, percent vehicle fit to 4 parameter curve
Aβ-40 = Aβ-40 level in conditioned media of 2B7 cells (MSD 3-PLEX ELISA)
Method: (§1) Assays were conducted to determine the ability of a Compound of Formula I to modulate […], and Aβ-38.
Human (6E10) Ab 3-PLEX elisa kits were purchased from Meso Scale Discovery Labs, 9328 Gaither Road, Gaithersburg, Md. 20877 (Catalog Number K15148E-3). Plates with capture antibodies were blocked for 1-2 hours at room temperature with 150 μL of the manufactures blocking reagent.
(§2) Cultured 2B7 cells in 96 well plate with 250 uL of media per well until confluent;
(§3) Prepared serial dilutions of compounds in DMSO at 100× the final desired concentration;
(§4) Washed wells with 2B7 cells 1× with 250 uL of media;
(§5) Diluted DMSO stocks 1:100 into media:
(§6) Added 250 μL of media containing compounds (1% DMSO) to wells with 2B7 cells for 5 hours at 37° C.
(§7) Diluted conditioned media: 1 part media with 1% DMSO and 1 part blocking buffer;
(§8) 150 μL of the 250 μL of conditioned media were used.
(§9) Standard Curve Sample Prep:
(§10) Prepared per manufacturer's protocol (see above)
(§11) Seven point standard curve samples were prepared that contained Aβ-42, Aβ-40, and Aβ-38. The highest concentration of Aβ-42 and Aβ-38 was 3,000 pg/mL and the highest concentration of Aβ-40 was 10,000 pg/mL. Subsequent serial dilutions were 1:3 and the final composition of each sample was 1 part blocking buffer and 1 part cell medium containing 1% DMSO.
(§12) Overnight Sample Incubation:
(§13) Blocked plates are washed 5× with MSD wash buffer with a plate washer
(§14) 25 uL of detection antibody and blocker G reagent in MSD blocking solution is added
(§15) 25 uL of samples (1 part conditioned media containing 1% DMSO and 1 part MSD blocking buffer) are then added.
(§16) plates are incubated overnight at 4 degrees C. or 2 hours at room temp
(§17) Wash wells 5× with MSD wash buffer
(§18) Added 150 μL 2×MSD read buffer
(§19) A-Beta peptide levels for each peptide are calculated from the standard curve using the MSD software provided with the MSD 2400 Imager. Percent vehicle values for each compound dosage were then calculated and fit to a 4 parameter curve generating IC50 values.

Aβ-38 = Aβ-38 level in conditioned media of 2B7 cells (MSD 3-PLEX ELISA)
Method: as §1
(§20) Plates with capture antibodies were blocked for 1-2 hours at room temperature with 150 μL of the manufactures blocking reagent.
as §2, §3, §4, §5, §6, §7, §8, §9, §10, §11, §12, §13, §14, §15, §16, §17, §18, §19

Aβ-42 = Aβ-42 level in conditioned media of 2B7 cells (MSD 3-PLEX ELISA)
Method: as §1, §20, §2, §3, §4, §5, §6, §7, §8, §9, §10, §11, §12, §13, §14, §15, §16, §17, §18, §19

SMILES	IC50 (Aβ-40) [nM]	IC50 (Aβ-38) [nM]	IC50 (Aβ-42) [nM]
CCO[C@@H]([C@H]1C[C@@H](C)[C@H]2[C@H](O1)[C@H](O)[C@@]1(C)[C@@H]3CC[C@H]4C(C)(C)[C@@H](OC(=O)C5CN(CCOC)C5)CCC45C[C@@]35CC[C@]21C)C(C)(C)O (stereo partly shown)	1000 to 10000	< 1000	< 1000
CCO[C@@H]([C@H]1C[C@@H](C)[C@H]2[C@H](O1)[C@H](O)[C@@]1(C)[C@@H]3CC[C@H]4C(C)(C)[C@@H](O[C@H]5CN([C@@H](C)CO)CCO5)CCC45C[C@@]35CC[C@]21C)C(C)(C)O (stereo partly shown)	1000 to 10000	< 1000	< 1000
CCO[C@@H]([C@H]1C[C@@H](C)[C@H]2[C@H](O1)[C@H](O)[C@@]1(C)[C@@H]3CC[C@H]4C(C)(C)[C@@H](OC(=O)[C@@H]5C[C@@H](O)CN5C)CCC45C[C@@]35CC[C@]21C)C(C)(C)O (stereo partly shown)	1000 to 10000	< 1000	< 1000
CO[C@@H]([C@H]1C[C@@H](C)[C@H]2[C@H](O1)[C@H](O)[C@@]1(C)[C@@H]3CC[C@H]4C(C)(C)[C@@H](O[C@H]5CN(CCN(C)C)CCO5)CCC45C[C@@]35CC[C@]21C)C(C)(C)O (stereo partly shown)	> 10000	1000 to 10000	< 1000
CCO[C@@H]([C@H]1C[C@@H](C)[C@H]2[C@H](O1)[C@H](O)[C@@]1(C)[C@@H]3CC[C@H]4C(C)(C)[C@@H](O[C@H]5CN(CCF)CCO5)CCC45C[C@@]35CC[C@]21C)C(C)(C)O (stereo partly shown)	1000 to 10000	< 1000	< 1000
CCO[C@@H]([C@H]1C[C@@H](C)[C@H]2[C@H](O1)[C@H](O)[C@@]1(C)[C@@H]3CC[C@H]4C(C)(C)[C@@H](OC(=O)CN5CCOCC5)CCC45C[C@@]35CC[C@]21C)C(C)(C)O (stereo partly shown)	1000 to 10000	< 1000	< 1000
CCO[C@@H](C1C[C@@H](C)[C@H]2C(O1)[C@H](O)[C@@]1(C)C3CC[C@H]4C(C)(C)[C@@H](O[C@H]5CN(CC(C)(C)N6CCOCC6)CCO5)CCC45C[C@@]35CC[C@]21C)C(C)(C)O (stereo partly shown)	1000 to 10000	< 1000	< 1000
CCO[C@@H]([C@H]1C[C@@H](C)[C@H]2[C@H](O1)[C@H](O)[C@@]1(C)[C@@H]3CC[C@H]4C(C)(C)[C@@H](OC(=O)[C@@H]5CCCN5C)CCC45C[C@@]35CC[C@]21C)C(C)(C)O (stereo partly shown)	1000 to 10000	< 1000	< 1000
CCO[C@@H]([C@H]1C[C@@H](C)[C@H]2[C@H](O1)[C@H](O)[C@@]1(C)[C@@H]3CC[C@H]4C(C)(C)[C@@H](OC(=O)[C@@H]5COCCN5)CCC45C[C@@]35CC[C@]21C)C(C)(C)O (stereo partly shown)	1000 to 10000	< 1000	< 1000
CCO[C@@H]([C@H]1C[C@@H](C)[C@H]2[C@H](O1)[C@H](O)[C@@]1(C)[C@@H]3CC[C@H]4C(C)(C)[C@@H](OC(=O)[C@H]5CNCCO5)CCC45C[C@@]35CC[C@]21C)C(C)(C)O (stereo partly shown)	1000 to 10000	< 1000	< 1000
CCO[C@@H]([C@H]1C[C@@H](C)[C@H]2[C@H](O1)[C@H](O)[C@@]1(C)[C@@H]3CC[C@H]4C(C)(C)[C@@H](O[C@H]5CN(C6(C)COC6)CCO5)CCC45C[C@@]35CC[C@]21C)C(C)(C)O (stereo partly shown)	1000 to 10000	< 1000	< 1000
CCO[C@@H]([C@H]1C[C@@H](C)[C@H]2[C@H](O1)[C@H](O)[C@@]1(C)[C@@H]3CC[C@H]4C(C)(C)[C@@H](O[C@H]5CN(CC(=O)N6CCC6)CCO5)CCC45C[C@@]35CC[C@]21C)C(C)(C)O (stereo partly shown)	1000 to 10000	< 1000	< 1000
CCO[C@@H](C1C[C@@H](C)[C@H]2C(O1)[C@H](O)[C@@]1(C)C3CC[C@H]4C(C)(C)[C@@H](O[C@H]5CN(c6ccccn6)CCO5)CCC45C[C@@]35CC[C@]21C)C(C)(C)O (stereo partly shown)	1000 to 10000	1000 to 10000	1000 to 10000
CCO[C@@H]([C@H]1C[C@@H](C)[C@H]2[C@H](O1)[C@H](O)[C@@]1(C)[C@@H]3CC[C@H]4C(C)(C)[C@@H](O[C@H]5CN(C(=O)CNS(=O)(=O)C(F)(F)F)CCO5)CCC45C[C@@]35CC[C@]21C)C(C)(C)O (stereo partly shown)	1000 to 10000	< 1000	< 1000
CCO[C@@H]([C@H]1C[C@@H](C)[C@H]2[C@H](O1)[C@H](O)[C@@]1(C)[C@@H]3CC[C@H]4C(C)(C)[C@@H](OC(=O)[C@H]5COCCN5C)CCC45C[C@@]35CC[C@]21C)C(C)(C)O (stereo partly shown)	> 10000	< 1000	< 1000
CCO[C@@H]([C@H]1C[C@@H](C)[C@H]2[C@H](O1)[C@H](O)[C@@]1(C)[C@@H]3CC[C@H]4C(C)(C)[C@@H](OC(=O)c5cccnc5)CCC45C[C@@]35CC[C@]21C)C(C)(C)O (stereo partly shown)	> 10000	< 1000	< 1000
CCO[C@@H]([C@H]1C[C@@H](C)[C@H]2[C@H](O1)[C@H](O)[C@@]1(C)[C@@H]3CC[C@H]4C(C)(C)[C@@H](OC(=O)[C@H]5CCCN5C)CCC45C[C@@]35CC[C@]21C)C(C)(C)O (stereo partly shown)	1000 to 10000	< 1000	< 1000
CCO[C@@H]([C@H]1C[C@@H](C)[C@H]2[C@H](O1)[C@H](O)[C@]1(C)[C@@H]3CC[C@H]4C(C)(C)[C@@H](O[C@H]5CN([C@H](C)C(=O)N6CCC6)CCO5)CC[C@@]45C[C@@]35CC[C@@]21C)C(C)(C)O		< 1000	< 1000
CCO[C@@H]([C@H]1C[C@@H](C)[C@H]2[C@H](O1)[C@H](O)[C@@]1(C)[C@@H]3CC[C@H]4C(C)(C)[C@@H](O[C@H]5CN(Cc6nccs6)CCO5)CCC45C[C@@]35CC[C@]21C)C(C)(C)O (stereo partly shown)		1000 to 10000	< 1000
CC(=O)O[C@H]([C@H]1C[C@@H](C)[C@H]2[C@@H](O1)[C@@H](O)[C@@]1(C)[C@@H]3CC[C@H]4C(C)(C)[C@@H](O)CCC45C[C@@]35CC[C@]21C)C(C)(C)O (stereo partly shown)	1000 to 10000		1000 to 10000
CCO[C@@H](C1C[C@@H](C)[C@H]2C(O1)[C@H](O)[C@@]1(C)C3CC[C@H]4C(C)(C)[C@@H](O[C@H]5CN(c6ncc(F)cn6)CCO5)CCC45C[C@@]35CC[C@]21C)C(C)(C)O (stereo partly shown)		1000 to 10000	1000 to 10000
CCO[C@@H]([C@H]1C[C@@H](C)[C@H]2[C@H](O1)[C@H](O)[C@@]1(C)[C@@H]3CC[C@H]4C(C)(C)[C@@H](OC(=O)[C@H]5CN(C(=O)OC(C)(C)C)CCO5)CCC45C[C@@]35CC[C@]21C)C(C)(C)O (stereo partly shown)		1000 to 10000	1000 to 10000
CCO[C@@H]([C@H]1C[C@@H](C)[C@H]2[C@H](O1)[C@H](O)[C@@]1(C)[C@@H]3CC[C@H]4C(C)(C)[C@@H](OC(=O)[C@@H]5COCCN5C(=O)OC(C)(C)C)CCC45C[C@@]35CC[C@]21C)C(C)(C)O (stereo partly shown)		1000 to 10000	1000 to 10000
CCO[C@@H]([C@H]1C[C@@H](C)[C@H]2[C@H](O1)[C@H](O)[C@@]1(C)[C@@H]3CC[C@H]4C(C)(C)[C@@H](O[C@H]5CN(Cc6cnn(C)c6)CCO5)CCC45C[C@@]35CC[C@]21C)C(C)(C)O (stereo partly shown)		1000 to 10000	< 1000
CCO[C@@H]([C@H]1C[C@@H](C)[C@H]2[C@H](O1)[C@H](O)[C@@]1(C)[C@@H]3CC[C@H]4C(C)(C)C(O[C@H]5CN(CCN(CCCOCCOCCOCCCNC(=O)CCCCC6SC[C@@H]7NC(=O)N[C@H]67)CCNC(=O)CCC6(C)N=N6)CCO5)CC[C@@]45CC35CC[C@]21C)C(C)(C)O (stereo partly shown)	1000 to 10000		< 1000
CCO[C@@H]([C@H]1C[C@@H](C)[C@H]2[C@H](O1)[C@H](O)[C@@]1(C)[C@@H]3CC[C@H]4C(C)(C)[C@@H](OC(=O)C5CN(C6COC6)C5)CCC45C[C@@]35CC[C@]21C)C(C)(C)O (stereo partly shown)		1000 to 10000	< 1000
CO[C@@H]([C@H]1C[C@@H](C)[C@H]2[C@H](O1)[C@H](O)[C@@]1(C)[C@@H]3CC[C@H]4C(C)(C)[C@@H](O[C@H]5CN(C6(C)COC6)CCO5)CCC45C[C@@]35CC[C@]21C)C(C)(C)O (stereo partly shown)		1000 to 10000	1000 to 10000
CCO[C@@H]([C@H]1C[C@@H](C)[C@H]2[C@H](O1)[C@H](O)[C@@]1(C)[C@@H]3CC[C@H]4C(C)(C)[C@@H](OC(=O)[C@@H]5COCCN5CCOC)CCC45C[C@@]35CC[C@]21C)C(C)(C)O (stereo partly shown)		1000 to 10000	< 1000

From patent US20130060013A1, “Compounds useful for treating neurodegenerative disorders” (SATORI PHARMACEUTICALS, INC., priority 2011, published 2013)
